Measurements published in patent publication US20040266774A1, “Amide compounds” (FUJISAWA PHARMACEUTICAL CO., LTD., priority 1999, published 2004).

Key:
[1] = molecular target: T1, 5-HT2c binding site (Rattus norvegicus, UniProt P08909); experiment: [3H]-mesulergine binding; conditions: displacement of [3H]-mesulergine (1 nM) in rat prefrontal cortex membranes; test drugs 10^-6 M; 30 nM spiperone present; 37° C., 30 minutes
T1 construct: ability to displace [^3H]-mesulergine in the rat prefrontal cortex; from tissue; host or cells: rat prefrontal cortex membrane suspension
T1 sequence (P08909 33-460): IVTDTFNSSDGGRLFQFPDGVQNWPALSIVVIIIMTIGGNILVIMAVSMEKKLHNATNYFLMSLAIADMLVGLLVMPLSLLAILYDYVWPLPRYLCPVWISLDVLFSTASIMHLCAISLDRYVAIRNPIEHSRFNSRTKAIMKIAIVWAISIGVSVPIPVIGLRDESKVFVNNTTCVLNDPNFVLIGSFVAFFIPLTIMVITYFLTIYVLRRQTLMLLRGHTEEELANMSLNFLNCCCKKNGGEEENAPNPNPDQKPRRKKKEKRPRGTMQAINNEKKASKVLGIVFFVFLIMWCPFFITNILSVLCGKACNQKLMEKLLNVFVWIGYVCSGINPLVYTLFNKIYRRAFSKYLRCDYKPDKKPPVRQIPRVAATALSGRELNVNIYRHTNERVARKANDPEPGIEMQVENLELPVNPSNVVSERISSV
Description: [^3H]-mesulergine Binding
The affinity of the test drugs for the 5-HT2c binding site can be determined by assessing their ability to displace [^3H]-mesulergine in the rat prefrontal cortex. The method employed was similar to that of Pazos et al, 1984.
The membrane suspension ([…]) was incubated with [^3H]-mesulergine (1 nM) in Tris HCl buffer containing CaCl2 4 mM and ascorbic acid 0.1% (pH 7.4) at 37° C. for 30 minutes. Non-specific binding was measured in the presence of mianserin (1 μM). 30 nM spiperone was used to prevent binding to 5-HT2A sites. Test drugs (10^−6 M) were added in a volume of 100 μl. The total assay volume was 1000 μl. Incubation was stopped by rapid filtration using a Brandel cell harvester and radioactivity measured by scintillation counting.
The IC50 values were determined using a four parameter logistic program (DeLean 1978) and the pKi (the negative logarithm of the inhibition constant) calculated from the Cheng Prusoff equation where: [formula]
C=concentration of [^3H]-mesulergine
Kd=affinity of mesulergine for 5-HT2c binding site.

Compound: O=C(Nc1cccc(-c2cccnc2)c1)c1cccc2c1Cc1ccccc1-2 [(2), N-(3-(pyridin-3-yl)phenyl)-9H-fluorene-1-carboxamide]
- Inhibition (%) [1]: 74%

Compound: O=C(Nc1cccc(-c2ccnnc2)c1)c1cccc2c1Cc1ccccc1-2 [(4), N-(3-(pyridazin-4-yl)phenyl)-9H-fluorene-1-carboxamide]
- Inhibition (%) [1]: 64%

Compound: O=C(Nc1cccc(-n2ccnc2)c1)c1csc(-c2ccccc2)n1 [Example 25, N-(3-(imidazol-1-yl)phenyl)-2-phenylthiazole-4-carboxamide]
- melting point: 131 to 134 °C

Compound: O=C(Nc1cccc(-c2cncnc2)c1)c1cccc2c1Cc1ccccc1-2 [(3), N-(3-(pyrimidin-5-yl)phenyl)-9H-fluorene-1-carboxamide]
- Inhibition (%) [1]: 92%

Compound: Cn1ccc2cc(NC(=O)Nc3cccnc3)ccc21 [(1), N-(1-Methyl-1H-indol-5-yl)-N′-(3-pyridyl)urea, reference compound]
- Inhibition (%) [1]: 21%
